pIC50: −log10 of the molar value.
How the values were obtained:
Format in all cases: biochemical
[1] = target: T1, vacuolar-type ATPase (V-ATPase) (Saccharomyces cerevisiae, UniProt P25515+P32563); experiment: enzyme-coupled ATPase assay
[2] = target: T1, vacuolar-type ATPase (V-ATPase); experiment: enzyme-coupled ATPase assay; remark: listed apart in the source
[3] = target: human HSP90α (Homo sapiens, UniProt P07900); experiment: ATP/NADH-coupled ATPase assay

Row | Compound | enzyme-coupled ATPase assay (NADH loss) with purified V-ATPase [1] | pIC50 [2] | pIC50 [3]
1 | CO/C1=C\C(C)=C\[C@@H](C)[C@@H](O)[C@@H](C)C/C(C)=C/C=C/[C@H](OC)[C@@H]([C@@H](C)[C@@H](O)[C@H](C)[C@@]2(O)C[C@@H](O)[C@H](C)[C@@H](C(C)C)O2)OC1=O [bafilomycin A1] | Oxohygrolidin (black bar) inhibited V-ATPase comparable to the plecomacrolides, bafilomycin A1(dotted bar), and concanamycin A (hatched bar) |  | 
2 | CC[C@@H](O)[C@H](C)/C=C/C(=O)[C@@H](C)[C@H](O)[C@H](C)[C@H]1OC(=O)/C(C)=C/C(C)=C/[C@@H](C)[C@@H](O)[C@@H](C)C/C(C)=C/C=C/[C@@H]1OC [oxohygrolidin] |  | ~6.60 | ~4.30
